Results published in PubChem BioAssay AID330 (DTP/NCI, 2004).
Values joined by “and” are separate entries in the source; they are usually repeats but may differ in a detail not shown here. Identical values can stand only once. Toxic doses and inconclusive results are not listed.

Tested on: P388 leukemia ip, CD2F1 mice, survival T/C
Assay: NCI In Vivo Anticancer Drug Screen. Data for tumor model P388 Leukemia (intraperitoneal) in CD2F1 (CDF1) mice
Settings: endpoint: median survival time, higher = longer survival
Outline: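 Mice carrying the transplanted tumor received test compound or vehicle. Survival was recorded in each group, and the value is the treated-group measurement divided by that of the vehicle-treated control group.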

[1] = dose: 100.0 mg/kg/injection, schedule: Q04DX003 (ip), vehicle: saline with Tween-80
[2] = dose: 200.0 mg/kg/injection, schedule: Q04DX003 (ip), vehicle: saline with Tween-80
[3] = dose: 50.0 mg/kg/injection, schedule: Q01DX005 (ip), vehicle: saline with Tween-80
[4] = dose: 60.0 mg/kg/injection, schedule: Q01DX005 (ip), vehicle: Klucel (hydroxypropylcellulose) (HPC)
[5] = dose: 120.0 mg/kg/injection, schedule: Q01DX005 (ip), vehicle: Klucel (hydroxypropylcellulose) (HPC)
[6] = dose: 240.0 mg/kg/injection, schedule: Q01DX005 (ip), vehicle: Klucel (hydroxypropylcellulose) (HPC)
[7] = dose: 50.0 mg/kg/injection, schedule: Q01DX009 (ip), vehicle: saline with Tween-80
[8] = dose: 60.0 mg/kg/injection, schedule: Q01DX005 (ip), vehicle: saline with Tween-80
[9] = dose: 100.0 mg/kg/injection, schedule: Q01DX009 (ip), vehicle: saline with Tween-80
[10] = dose: 200.0 mg/kg/injection, schedule: Q01DX009 (ip), vehicle: saline with Tween-80
[11] = dose: 12.5 mg/kg/injection, schedule: Q01DX005 (ip), vehicle: saline with Tween-80
[12] = dose: 25.0 mg/kg/injection, schedule: Q01DX005 (ip), vehicle: saline with Tween-80
[13] = dose: 120.0 mg/kg/injection, schedule: Q01DX005 (ip), vehicle: saline with Tween-80
[14] = dose: 240.0 mg/kg/injection, schedule: Q01DX005 (ip), vehicle: saline with Tween-80
[15] = dose: 6.25 mg/kg/injection, schedule: Q01DX005 (ip), vehicle: Klucel (hydroxypropylcellulose) (HPC)
[16] = dose: 12.5 mg/kg/injection, schedule: Q01DX005 (ip), vehicle: Klucel (hydroxypropylcellulose) (HPC)
[17] = dose: 25.0 mg/kg/injection, schedule: Q01DX005 (ip), vehicle: Klucel (hydroxypropylcellulose) (HPC)

In the case of `CC(C)CCCC(C)C1CCC2C3CCC4CC(OS(C)(=O)=O)CCC4(C)C3CCC12C` (stereo not drawn), the T/C (dose: 50.0 mg/kg/injection, schedule: Q01DX009 (ip), vehicle: Klucel (hydroxypropylcellulose) (HPC)) was 96 % of control, the T/C (dose: 100.0 mg/kg/injection, schedule: Q01DX009 (ip), vehicle: Klucel (hydroxypropylcellulose) (HPC)) was 106 % of control and the T/C (dose: 200.0 mg/kg/injection, schedule: Q01DX009 (ip), vehicle: Klucel (hydroxypropylcellulose) (HPC)) was 103 % of control.
In the case of `O=NN(C(=O)NC1CCC(O)CC1)C1CCC(O)CC1` (stereo not drawn), the T/C (dose: 25.0 mg/kg/injection, schedule: Q01DX001 (ip), vehicle: distilled water + Tween-80) was 102 % of control, the T/C (dose: 50.0 mg/kg/injection, schedule: Q01DX001 (ip), vehicle: distilled water + Tween-80) was 99 % of control and the T/C (dose: 100.0 mg/kg/injection, schedule: Q01DX001 (ip), vehicle: distilled water + Tween-80) was 106 % of control. For the same molecule, the T/C (dose: 200.0 mg/kg/injection, schedule: Q01DX001 (ip), vehicle: distilled water + Tween-80) was 101 % of control.
`[C-]#[O+].[C-]#[O+].[CH3][Sn]([CH3])[c]1ccccc1.[Fe+5].[c-]1[c-][c-][cH-][c-]1` was tested, and the T/C [1] was 108 % of control and the T/C [2] was 118 % of control.
For `O=[N+]([O-])c1ccc(N/N=C\c2c(Cl)n(-c3ccccc3)c3ccccc23)cc1`, the T/C [1] was 93 % of control, the T/C [2] was 90 % of control and the T/C (dose: 400.0 mg/kg/injection, schedule: Q01DX001 (ip), vehicle: saline) was 95 % of control. For the same molecule, the T/C (dose: 400.0 mg/kg/injection, schedule: Q04DX003 (ip), vehicle: saline with Tween-80) was 91 % of control.
With `Cn1cnc([N+](=O)[O-])c1[Se]c1nc(N)nc2nc[nH]c12` the T/C (dose: 3.12 mg/kg/injection, schedule: Q01DX009 (ip), vehicle: dextrose) was 117 % of control, the T/C (dose: 3.12 mg/kg/injection, schedule: Q01DX009 (ip), vehicle: water) was 104 % of control and the T/C (dose: 6.25 mg/kg/injection, schedule: Q01DX009 (ip), vehicle: dextrose) was 112 % of control. The T/C (dose: 6.25 mg/kg/injection, schedule: Q01DX009 (ip), vehicle: water) was 116 % of control, the T/C (dose: 25.0 mg/kg/injection, schedule: Q01DX009 (ip), vehicle: dextrose) was 161 % of control and the T/C (dose: 25.0 mg/kg/injection, schedule: Q01DX009 (ip), vehicle: water) was 106 % of control. For the same molecule, the T/C (dose: 50.0 mg/kg/injection, schedule: Q01DX009 (ip), vehicle: dextrose) was 123 % of control and the T/C (dose: 50.0 mg/kg/injection, schedule: Q01DX009 (ip), vehicle: water) was 116 % of control.
In the case of `Brc1cc(Br)c(I)c(Br)c1`, the T/C (dose: 100.0 mg/kg/injection, schedule: Q04DX003 (ip), vehicle: other) was 95 % of control, the T/C (dose: 200.0 mg/kg/injection, schedule: Q04DX003 (ip), vehicle: other) was 100 % of control and the T/C (dose: 400.0 mg/kg/injection, schedule: Q04DX003 (ip), vehicle: other) was 100 % of control.
In the case of `O=C1c2cccc3cccc(c23)C(=O)N1CC1CCCO1` (stereo not drawn), the T/C [3] was 99 % of control, the T/C (dose: 100.0 mg/kg/injection, schedule: Q01DX005 (ip), vehicle: saline with Tween-80) was 101 % of control and the T/C (dose: 200.0 mg/kg/injection, schedule: Q01DX005 (ip), vehicle: saline with Tween-80) was 94 % of control.
For `COc1ccc(C)cc1NC(=O)SC(C)C`, the T/C [4] was 89 % of control, the T/C [5] was 86 % of control and the T/C [6] was 93 % of control.
With `CNC(=O)OCc1c(-c2ccccc2)c(-c2ccccc2)n(-c2ccccc2)c1COC(=O)NC` the T/C (dose: 12.5 mg/kg/injection, schedule: Q01DX009 (ip), vehicle: distilled water + Tween-80) was 110 % of control, the T/C (dose: 25.0 mg/kg/injection, schedule: Q01DX009 (ip), vehicle: distilled water + Tween-80) was 112 % of control and 117 % of control and the T/C (dose: 100.0 mg/kg/injection, schedule: Q01DX009 (ip), vehicle: distilled water + Tween-80) was 155 % of control. The T/C (dose: 200.0 mg/kg/injection, schedule: Q01DX009 (ip), vehicle: distilled water + Tween-80) was 171 % of control and 175 % of control.
`CC1CCC(C(C)C)C2(C1)OC(CCl)CS2` (stereo not drawn) was tested, and the T/C (dose: 12.5 mg/kg/injection, schedule: Q01DX009 (ip), vehicle: saline with Tween-80) was 106 % of control, the T/C (dose: 25.0 mg/kg/injection, schedule: Q01DX009 (ip), vehicle: saline with Tween-80) was 114 % of control and the T/C [7] was 114 % of control and 124 % of control.
For `CNS(=O)(=O)Cc1ccccc1`, the T/C (dose: 50.0 mg/kg/injection, schedule: Q01DX009 (ip), vehicle: saline) was 107 % of control, the T/C (dose: 100.0 mg/kg/injection, schedule: Q01DX009 (ip), vehicle: saline) was 107 % of control and the T/C (dose: 200.0 mg/kg/injection, schedule: Q01DX009 (ip), vehicle: saline) was 100 % of control. The T/C (dose: 400.0 mg/kg/injection, schedule: Q01DX009 (ip), vehicle: saline) was 108 % of control.
`O=C(Cc1nc2ccc(Cl)cc2nc1CC(=O)c1ccccc1)c1ccccc1` was tested, and the T/C (dose: 15.0 mg/kg/injection, schedule: Q01DX005 (ip), vehicle: saline with Tween-80) was 102 % of control, the T/C (dose: 30.0 mg/kg/injection, schedule: Q01DX005 (ip), vehicle: saline with Tween-80) was 111 % of control and the T/C [8] was 100 % of control and 107 % of control.
In the case of `CCOC1N(c2ccc(Cl)cc2)CN(CCCN(C)C)CC1(C)C` (stereo not drawn), the T/C [7] was 104 % of control, the T/C [9] was 104 % of control and the T/C [10] was 117 % of control.
With `S=C(NNc1nnc(-c2ccccc2)c(-c2ccccc2)n1)Nc1ccccc1` the T/C [11] was 106 % of control, the T/C [12] was 97 % of control and the T/C [3] was 90 % of control and 93 % of control.
With `CCCCOC1OCN(CCCN(C)C)CC1(C)C` (stereo not drawn) the T/C [7] was 108 % of control, the T/C [9] was 122 % of control and the T/C [10] was 122 % of control.
In the case of `Cc1c2ccncc2cc2c1[nH]c1ccccc12`, the T/C (dose: 50.0 mg/kg/injection, schedule: Q04DX003 (ip), vehicle: saline with Tween-80) was 160 % of control and the T/C (dose: 66.0 mg/kg/injection, schedule: Q04DX003 (ip), vehicle: saline with Tween-80) was 209 % of control.
For `O=C(/C=C(\C(=O)c1ccccc1)c1ccccc1)c1ccccc1`, the T/C (dose: 50.0 mg/kg/injection, schedule: Q01DX009 (ip), vehicle: saline sonified) was 100 % of control, the T/C (dose: 100.0 mg/kg/injection, schedule: Q01DX009 (ip), vehicle: saline sonified) was 100 % of control and the T/C (dose: 200.0 mg/kg/injection, schedule: Q01DX009 (ip), vehicle: saline sonified) was 100 % of control.
In the case of `O=C1NC(=O)N(c2ccccc2)C(=O)/C1=C/c1ccc2c(c1)CCC2`, the T/C [4] was 95 % of control, the T/C [5] was 97 % of control and the T/C [6] was 108 % of control.
With `CC(C)C(CO)NC(=O)c1ccccc1` (stereo not drawn) the T/C (dose: 100.0 mg/kg/injection, schedule: Q04DX002 (ip), vehicle: Klucel (hydroxypropylcellulose) (HPC)) was 95 % of control, the T/C (dose: 200.0 mg/kg/injection, schedule: Q04DX002 (ip), vehicle: Klucel (hydroxypropylcellulose) (HPC)) was 96 % of control and the T/C (dose: 400.0 mg/kg/injection, schedule: Q04DX002 (ip), vehicle: Klucel (hydroxypropylcellulose) (HPC)) was 95 % of control.
With `CC(=O)NC(C)c1ccc2ccccc2c1` (stereo not drawn) the T/C [8] was 97 % of control, the T/C [13] was 96 % of control and the T/C [14] was 97 % of control.
With `CC(C)(C)C(Br)C(=O)NN=C(c1ccccc1)c1ccccc1` (stereo not drawn) the T/C [7] was 106 % of control, the T/C [9] was 105 % of control and the T/C [10] was 99 % of control.
For `CC(C)(C)OC(=O)NC(CCC(=O)O)(Cc1ccccc1)C(=O)NC(CCC(=O)OCc1ccccc1)C(=O)OCc1ccccc1` (stereo not drawn), the T/C (dose: 6.25 mg/kg/injection, schedule: Q01DX005 (ip), vehicle: saline with Tween-80) was 98 % of control, the T/C [11] was 96 % of control and the T/C [12] was 105 % of control.
In the case of `COc1ccc2c(c1OC)C[C@@H]1c3c(cc4c(c3-2)OCO4)CCN1C`, the T/C [15] was 117 % of control, the T/C [16] was 105 % of control and the T/C [17] was 96 % of control. The T/C (dose: 50.0 mg/kg/injection, schedule: Q01DX005 (ip), vehicle: Klucel (hydroxypropylcellulose) (HPC)) was 92 % of control.
With `COC(=O)C1CC2c3ccccc3C1c1ccccc12` (stereo not drawn) the T/C [8] was 99 % of control, the T/C [13] was 99 % of control and the T/C [14] was 101 % of control.
`CCP(CC)(c1ccccc1)=c1c(=O)c(Cl)c(Cl)c(=O)c1=O` was tested, and the T/C [15] was 100 % of control, the T/C [16] was 102 % of control and the T/C [17] was 100 % of control.
